# The source made the active and inactive calls. The calls are words filed in the database; no cut-off is given here.
# System: Staphylococcus aureus
# Test: Antimicrobial activity against Staphylococcus aureus clinical isolate after 24 hrs by broth dilution assay
# Assay type: functional
# Conditions: not given
row,Compound,MIC
1,Nc1cc2n([C@@H]3O[C@H](COCc4ccccc4)[C@@H](OCc4ccccc4)[C@@H]3OCc3ccccc3)ccn2c(=O)n1,160 µM
2,O=c1nccc2n([C@@H]3O[C@H](COCc4ccccc4)[C@@H](OCc4ccccc4)[C@@H]3OCc3ccccc3)ccn12,160 µM

# System: Trichophyton mentagrophytes
# Test: Antimicrobial activity against Trichophyton mentagrophytes clinical isolate after 48 hrs by broth dilution assay
# Assay type: functional
# Conditions: not given
row,Compound,MIC
1,Nc1cc2n([C@@H]3O[C@H](COCc4ccccc4)[C@@H](OCc4ccccc4)[C@@H]3OCc3ccccc3)ccn2c(=O)n1,40 µM
2,O=c1nccc2n([C@@H]3O[C@H](COCc4ccccc4)[C@@H](OCc4ccccc4)[C@@H]3OCc3ccccc3)ccn12,40 µM

# System: Candida albicans
# Test: Antimicrobial activity against Candida albicans clinical isolate at 0.005 to 0.4 umol/ml after 24 hrs by broth dilution assay
# Assay type: functional, organism-based
# Conditions: not given
row,Compound,Activity
1,Cl[C@H]1O[C@H](COCc2ccccc2)[C@@H](OCc2ccccc2)[C@@H]1OCc1ccccc1,inactive
2,O=c1nc(Cl)cc2n([C@@H]3O[C@H](COCc4ccccc4)[C@@H](OCc4ccccc4)[C@@H]3OCc3ccccc3)ccn12,inactive
3,Nc1cc2n([C@@H]3O[C@H](COCc4ccccc4)[C@@H](OCc4ccccc4)[C@@H]3OCc3ccccc3)ccn2c(=O)n1,inactive
4,Nc1cc2n([C@@H]3O[C@H](CO)[C@@H](O)[C@@H]3O)ccn2c(=O)n1,inactive
5,O=c1nccc2n([C@@H]3O[C@H](COCc4ccccc4)[C@@H](OCc4ccccc4)[C@@H]3OCc3ccccc3)ccn12,inactive
6,O=c1nccc2n([C@@H](CO)OC(CO)CO)ccn12,inactive
7,O=c1nccc2n([C@@H]3O[C@H](CO)[C@@H](O)[C@@H]3O)ccn12,inactive
8,C[Si](C)(C)Oc1nc(Cl)cc2nccn12,inactive

# System: Human alphaherpesvirus 1
# Test: Antiviral activity against Herpes simplex virus 1 infected in human KB cells assessed as inhibition of virus induced cytopathic effects at 1 to 1000 ug/ml after 72 hrs
# Assay type: functional, organism-based
# Conditions: not given
row,Compound,Activity
1,Cl[C@H]1O[C@H](COCc2ccccc2)[C@@H](OCc2ccccc2)[C@@H]1OCc1ccccc1,inactive
2,O=c1nc(Cl)cc2n([C@@H]3O[C@H](COCc4ccccc4)[C@@H](OCc4ccccc4)[C@@H]3OCc3ccccc3)ccn12,inactive
3,Nc1cc2n([C@@H]3O[C@H](COCc4ccccc4)[C@@H](OCc4ccccc4)[C@@H]3OCc3ccccc3)ccn2c(=O)n1,inactive
4,Nc1cc2n([C@@H]3O[C@H](CO)[C@@H](O)[C@@H]3O)ccn2c(=O)n1,inactive
5,O=c1nccc2n([C@@H]3O[C@H](COCc4ccccc4)[C@@H](OCc4ccccc4)[C@@H]3OCc3ccccc3)ccn12,inactive
6,O=c1nccc2n([C@@H](CO)OC(CO)CO)ccn12,inactive
7,O=c1nccc2n([C@@H]3O[C@H](CO)[C@@H](O)[C@@H]3O)ccn12,inactive
8,C[Si](C)(C)Oc1nc(Cl)cc2nccn12,inactive

# System: KB
# Test: Antiviral activity against Rhinovirus type 13 infected in human KB cells assessed as inhibition of virus-induced cytopathic effect at 1 to 1000 ug/ml after 72 hrs
# Assay type: functional, cell-based
# Conditions: Human rhinovirus A13
row,Compound,Activity
1,Cl[C@H]1O[C@H](COCc2ccccc2)[C@@H](OCc2ccccc2)[C@@H]1OCc1ccccc1,inactive
2,O=c1nc(Cl)cc2n([C@@H]3O[C@H](COCc4ccccc4)[C@@H](OCc4ccccc4)[C@@H]3OCc3ccccc3)ccn12,inactive
3,Nc1cc2n([C@@H]3O[C@H](COCc4ccccc4)[C@@H](OCc4ccccc4)[C@@H]3OCc3ccccc3)ccn2c(=O)n1,Active
4,Nc1cc2n([C@@H]3O[C@H](CO)[C@@H](O)[C@@H]3O)ccn2c(=O)n1,inactive
5,O=c1nccc2n([C@@H]3O[C@H](COCc4ccccc4)[C@@H](OCc4ccccc4)[C@@H]3OCc3ccccc3)ccn12,Active
6,O=c1nccc2n([C@@H](CO)OC(CO)CO)ccn12,inactive
7,O=c1nccc2n([C@@H]3O[C@H](CO)[C@@H](O)[C@@H]3O)ccn12,inactive
8,C[Si](C)(C)Oc1nc(Cl)cc2nccn12,inactive

# System: Human respirovirus 3
# Test: Antiviral activity against Parainfluenza virus type 3 infected in human KB cells assessed as inhibition of virus-induced cytopathic effect at 1 to 1000 ug/ml after 72 hrs
# Assay type: functional, organism-based
# Conditions: not given
row,Compound,Activity
1,Cl[C@H]1O[C@H](COCc2ccccc2)[C@@H](OCc2ccccc2)[C@@H]1OCc1ccccc1,inactive
2,O=c1nc(Cl)cc2n([C@@H]3O[C@H](COCc4ccccc4)[C@@H](OCc4ccccc4)[C@@H]3OCc3ccccc3)ccn12,inactive
3,Nc1cc2n([C@@H]3O[C@H](COCc4ccccc4)[C@@H](OCc4ccccc4)[C@@H]3OCc3ccccc3)ccn2c(=O)n1,inactive
4,Nc1cc2n([C@@H]3O[C@H](CO)[C@@H](O)[C@@H]3O)ccn2c(=O)n1,inactive
5,O=c1nccc2n([C@@H]3O[C@H](COCc4ccccc4)[C@@H](OCc4ccccc4)[C@@H]3OCc3ccccc3)ccn12,inactive
6,O=c1nccc2n([C@@H](CO)OC(CO)CO)ccn12,inactive
7,O=c1nccc2n([C@@H]3O[C@H](CO)[C@@H](O)[C@@H]3O)ccn12,inactive
8,C[Si](C)(C)Oc1nc(Cl)cc2nccn12,inactive

# System: Escherichia coli
# Test: Antimicrobial activity against Escherichia coli clinical isolate at 0.005 to 0.4 umol/ml after 24 hrs by broth dilution assay
# Assay type: functional, organism-based
# Conditions: not given
row,Compound,Activity
1,Cl[C@H]1O[C@H](COCc2ccccc2)[C@@H](OCc2ccccc2)[C@@H]1OCc1ccccc1,inactive
2,O=c1nc(Cl)cc2n([C@@H]3O[C@H](COCc4ccccc4)[C@@H](OCc4ccccc4)[C@@H]3OCc3ccccc3)ccn12,inactive
3,Nc1cc2n([C@@H]3O[C@H](COCc4ccccc4)[C@@H](OCc4ccccc4)[C@@H]3OCc3ccccc3)ccn2c(=O)n1,inactive
4,Nc1cc2n([C@@H]3O[C@H](CO)[C@@H](O)[C@@H]3O)ccn2c(=O)n1,inactive
5,O=c1nccc2n([C@@H]3O[C@H](COCc4ccccc4)[C@@H](OCc4ccccc4)[C@@H]3OCc3ccccc3)ccn12,inactive
6,O=c1nccc2n([C@@H](CO)OC(CO)CO)ccn12,inactive
7,O=c1nccc2n([C@@H]3O[C@H](CO)[C@@H](O)[C@@H]3O)ccn12,inactive
8,C[Si](C)(C)Oc1nc(Cl)cc2nccn12,inactive

# System: Klebsiella pneumoniae
# Test: Antimicrobial activity against Klebsiella pneumoniae clinical isolate at 0.005 to 0.4 umol/ml after 24 hrs by broth dilution assay
# Assay type: functional, organism-based
# Conditions: not given
row,Compound,Activity
1,Cl[C@H]1O[C@H](COCc2ccccc2)[C@@H](OCc2ccccc2)[C@@H]1OCc1ccccc1,inactive
2,O=c1nc(Cl)cc2n([C@@H]3O[C@H](COCc4ccccc4)[C@@H](OCc4ccccc4)[C@@H]3OCc3ccccc3)ccn12,inactive
3,Nc1cc2n([C@@H]3O[C@H](COCc4ccccc4)[C@@H](OCc4ccccc4)[C@@H]3OCc3ccccc3)ccn2c(=O)n1,inactive
4,Nc1cc2n([C@@H]3O[C@H](CO)[C@@H](O)[C@@H]3O)ccn2c(=O)n1,inactive
5,O=c1nccc2n([C@@H]3O[C@H](COCc4ccccc4)[C@@H](OCc4ccccc4)[C@@H]3OCc3ccccc3)ccn12,inactive
6,O=c1nccc2n([C@@H](CO)OC(CO)CO)ccn12,inactive
7,O=c1nccc2n([C@@H]3O[C@H](CO)[C@@H](O)[C@@H]3O)ccn12,inactive
8,C[Si](C)(C)Oc1nc(Cl)cc2nccn12,inactive

# System: Proteus mirabilis
# Test: Antimicrobial activity against Proteus mirabilis clinical isolate at 0.005 to 0.4 umol/ml after 24 hrs by broth dilution assay
# Assay type: functional, organism-based
# Conditions: not given
row,Compound,Activity
1,Cl[C@H]1O[C@H](COCc2ccccc2)[C@@H](OCc2ccccc2)[C@@H]1OCc1ccccc1,inactive
2,O=c1nc(Cl)cc2n([C@@H]3O[C@H](COCc4ccccc4)[C@@H](OCc4ccccc4)[C@@H]3OCc3ccccc3)ccn12,inactive
3,Nc1cc2n([C@@H]3O[C@H](COCc4ccccc4)[C@@H](OCc4ccccc4)[C@@H]3OCc3ccccc3)ccn2c(=O)n1,inactive
4,Nc1cc2n([C@@H]3O[C@H](CO)[C@@H](O)[C@@H]3O)ccn2c(=O)n1,inactive
5,O=c1nccc2n([C@@H]3O[C@H](COCc4ccccc4)[C@@H](OCc4ccccc4)[C@@H]3OCc3ccccc3)ccn12,inactive
6,O=c1nccc2n([C@@H](CO)OC(CO)CO)ccn12,inactive
7,O=c1nccc2n([C@@H]3O[C@H](CO)[C@@H](O)[C@@H]3O)ccn12,inactive
8,C[Si](C)(C)Oc1nc(Cl)cc2nccn12,inactive

# System: Staphylococcus aureus
# Test: Antimicrobial activity against Staphylococcus aureus clinical isolate at 0.005 to 0.4 umol/ml after 24 hrs by broth dilution assay
# Assay type: functional, organism-based
# Conditions: not given
row,Compound,Activity
1,Cl[C@H]1O[C@H](COCc2ccccc2)[C@@H](OCc2ccccc2)[C@@H]1OCc1ccccc1,inactive
2,O=c1nc(Cl)cc2n([C@@H]3O[C@H](COCc4ccccc4)[C@@H](OCc4ccccc4)[C@@H]3OCc3ccccc3)ccn12,inactive
3,Nc1cc2n([C@@H]3O[C@H](CO)[C@@H](O)[C@@H]3O)ccn2c(=O)n1,inactive
4,O=c1nccc2n([C@@H](CO)OC(CO)CO)ccn12,inactive
5,O=c1nccc2n([C@@H]3O[C@H](CO)[C@@H](O)[C@@H]3O)ccn12,inactive
6,C[Si](C)(C)Oc1nc(Cl)cc2nccn12,inactive

# System: Trichophyton mentagrophytes
# Test: Antimicrobial activity against Trichophyton mentagrophytes clinical isolate at 0.005 to 0.4 umol/ml after 48 hrs by broth dilution assay
# Assay type: functional, organism-based
# Conditions: not given
row,Compound,Activity
1,Cl[C@H]1O[C@H](COCc2ccccc2)[C@@H](OCc2ccccc2)[C@@H]1OCc1ccccc1,inactive
2,O=c1nc(Cl)cc2n([C@@H]3O[C@H](COCc4ccccc4)[C@@H](OCc4ccccc4)[C@@H]3OCc3ccccc3)ccn12,inactive
3,Nc1cc2n([C@@H]3O[C@H](CO)[C@@H](O)[C@@H]3O)ccn2c(=O)n1,inactive
4,O=c1nccc2n([C@@H](CO)OC(CO)CO)ccn12,inactive
5,O=c1nccc2n([C@@H]3O[C@H](CO)[C@@H](O)[C@@H]3O)ccn12,inactive
6,C[Si](C)(C)Oc1nc(Cl)cc2nccn12,inactive
